Assay results as given in patent publication US12702660B2, “Method for treating cancer with an oral dosage form of an estrogen receptor-alpha inhibitor” (Eisai R&D Management Co., Ltd., priority 2019, dated 2026).

Tests used:
Format in all cases: in vivo, human
[1] = Safety: treatment-related adverse events and dose-limiting toxicities, phase 1 dose escalation
Description: Example 3 reports Clinical and Genomics Analysis of a single trial. The Study Population in Example 3 was as follows: • Women ≥18 years old with locally advanced or metastatic ER+HER2−BC. • Progression on at least one hormonal therapy and at least one additional therapy/regimen; no maximum number of prior lines of therapy. • ECOG performance status of 0 or 1. • Adequate bone marrow and organ function. • Excluded if had bone-only disease or inflammatory BC.
(§1) Methods were used to analyze whether H3B-6545 inactivates both wild-type and mutant ERα by targeting cysteine 530 and enforcing a unique antagonist conformation. Methods: Women with locally advanced or metastatic HR+BC are treated (tx) with H3B-6545 drug product administered once daily orally by capsule over a 28 day cycle after progression on at least one hormonal therapy and at least one additional therapy/regimen. Dose escalation uses a 3+3 design with the option to backfill previously cleared doses and allows for intrapatient dose escalation. This example explored the safety, pharmacokinetics and pharmacodynamics of H3B-6545 in women with HR+BC to identify a recommended subsequent dose for testing.
• H3B-6545 administered once daily orally over a 28 day cycle. • Dose escalation using a standard 3+3 study design using dose cohorts of 100, 200, 300, 450, and 600 mg QD. • Patients allowed to backfill previously cleared doses. • Intra-patient dose escalation allowed after completion of Cycle 3. […]

[2] = system: ER target gene expression; test: Pharmacodynamics: ER target gene expression; conditions: patients, 100 to 450 mg/day
Experimental: as §1

[3] = system: locally advanced or metastatic ER+HER2−BC; test: Tumor response and progression-free survival, phase 1 dose escalation; conditions: as of 10 Dec. 2018; 32 patients, 100 to 450 mg/day
[4] = 100 mg QD (N = 6), as of Apr. 20, 2019
[5] = 200 mg QD (N = 12), as of Apr. 20, 2019
[6] = 300 mg QD (N = 11), as of Apr. 20, 2019
[7] = 450 mg QD (N = 10), as of Apr. 20, 2019
[8] = 600 mg QD (N = 7), as of Apr. 20, 2019
[9] = Total (N = 46), 100 to 600 mg QD, as of Apr. 20, 2019
[10] = as of Apr. 20, 2019, 100 to 600 mg QD

## CN(C)C(=O)/C=C/CNCCOc1ccc(/C(=C(/CC(F)(F)F)c2ccccc2)c2ccc3[nH]nc(F)c3c2)cn1 [H3B-6545, (E)-N,N-dimethyl-4-[2-[5-[(Z)-4,4,4-trifluoro-1-(3-fluoro-1H-indazol-5-yl)-2-phenylbut-1-enyl]pyridin-2-yl]oxyethylamino]but-2-enamide]
[1]; [4]
  Subjects with any TRAE: 4
  TRAE Anaemia, subjects: 0
  TRAE Aspartate aminotransferase increased, subjects: 0
  TRAE Diarrhoea, subjects: 1
  TRAE Fatigue, subjects: 1
  TRAE Nausea, subjects: 1
  TRAE Sinus bradycardia, subjects: 0
[1]; [5]
  Subjects with any TRAE: 6
  TRAE Anaemia, subjects: 1
  TRAE Aspartate aminotransferase increased, subjects: 1
  TRAE Diarrhoea, subjects: 1
  TRAE Fatigue, subjects: 2
  TRAE Nausea, subjects: 0
  TRAE Sinus bradycardia, subjects: 2
[1]; [6]
  Subjects with any TRAE: 9
  TRAE Anaemia, subjects: 2
  TRAE Aspartate aminotransferase increased, subjects: 1
  TRAE Diarrhoea, subjects: 2
  TRAE Fatigue, subjects: 3
  TRAE Nausea, subjects: 3
  TRAE Sinus bradycardia, subjects: 7
[1]; [7]
  Subjects with any TRAE: 9
  TRAE Anaemia, subjects: 3
  TRAE Aspartate aminotransferase increased, subjects: 1
  TRAE Diarrhoea, subjects: 3
  TRAE Fatigue, subjects: 1
  TRAE Nausea, subjects: 4
  TRAE Sinus bradycardia, subjects: 3
[1]; [8]
  Subjects with any TRAE: 5
  TRAE Anaemia, subjects: 1
  TRAE Aspartate aminotransferase increased, subjects: 2
  TRAE Diarrhoea, subjects: 0
  TRAE Fatigue, subjects: 1
  TRAE Nausea, subjects: 1
  TRAE Sinus bradycardia, subjects: 0
[1]; 600 mg QD cohort, Grade 3 fatigue and Grade 3 rash morbilliform, as of Apr. 20, 2019
  dose-limiting toxicity (DLT)s, number: Two
[1]; 46 patients, 100 to 600 mg QD
  sinus bradycardia, dose or concentration dependence: does not appear to be dose- or concentration-dependent
[1]; 46 patients, 100 to 600 mg QD, as of Apr. 20, 2019
  TRAEs ≥Grade 4: no TRAEs ≥Grade 4
[1]; 46 patients, 100 to 600 mg QD, two at 450 mg, four at 600 mg, as of Apr. 20, 2019
  Grade 3 TRAEs, number: Six
[1]; [9]
  Subjects with any TRAE: 33
  TRAE Anaemia, subjects: 7
  TRAE Aspartate aminotransferase increased, subjects: 5
  TRAE Diarrhoea, subjects: 7
  TRAE Fatigue, subjects: 8
  TRAE Nausea, subjects: 9
  TRAE Sinus bradycardia, subjects: 12
[1]; as of 10 Dec. 2018, 32 patients, 100 to 450 mg/day
  dose-limiting toxicities: No dose-limiting toxicities
[1]; as of 10 Dec. 2018, 32 patients, 100 to 450 mg/day, lymphocyte count decrease
  Grade 3 treatment related adverse events (TRAE), number: one
[1]; as of 10 Dec. 2018, H3B-6545 drug product
  tolerability: well-tolerated up to the 450 mg dose level
[1]; [10]
  grade of TRAEs: Most TRAEs were grade 1 or 2 and manageable
  tolerated dose: tolerated up to and including 450 mg QD
[2]
  ER target gene expression: inhibited ER target gene expression
[3]
  Partial responses (PRs), patients: 3 patients
  Stable disease, % of patients: 47%
  patients who completed at least 6 months of treatment: 34%
